From publication PMC10497752, “Heparins are potent inhibitors of ectonucleotide pyrophosphatase/phospho-diesterase-1 (NPP1) – a promising target for the immunotherapy of cancer” (Frontiers in Immunology, 2023)
Read-outs that look alike come from different tables or passages of the source.

Assays:
Type in all cases: biochemical
human NPP1 [1] = biological target: T1, human NPP1 (Homo sapiens, UniProt P22413); assay: NPP1 assay, capillary electrophoresis (CE)-based, ATP as substrate; details: for IC50: human NPP1, 400 µM ATP, CE assay
T1 construct: human recombinant soluble NPP1 (Val191 - Leu591) expressed in murine myeloma NS0 cells; His-tag (N); purchased R&D Systems GmbH (Wiesbaden, Germany); host or cells: murine myeloma NS0 cells
T1 sequence (P22413 191-591): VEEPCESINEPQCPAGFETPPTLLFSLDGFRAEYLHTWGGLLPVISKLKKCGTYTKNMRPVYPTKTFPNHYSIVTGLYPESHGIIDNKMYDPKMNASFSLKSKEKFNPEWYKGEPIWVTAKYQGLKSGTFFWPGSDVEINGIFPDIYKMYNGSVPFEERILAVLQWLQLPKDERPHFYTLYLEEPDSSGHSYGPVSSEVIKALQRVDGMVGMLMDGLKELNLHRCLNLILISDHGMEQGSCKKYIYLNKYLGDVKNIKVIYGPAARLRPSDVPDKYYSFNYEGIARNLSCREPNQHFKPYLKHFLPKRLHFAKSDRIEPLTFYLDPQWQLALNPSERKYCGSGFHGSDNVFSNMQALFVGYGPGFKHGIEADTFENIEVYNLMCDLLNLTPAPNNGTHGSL
Method: (§1) Concentration-inhibition curves of the test compounds at human NPP1 were performed with ATP as substrate at a final concentration of 400 μM. Several different dilutions of the test compounds were prepared in assay buffer (10 mM N-cyclohexyl-2-aminoethanesulfonic acid (CHES), 2 mM CaCl2, 1 mM MgCl2, pH 9.00) and incubated with 20 ng of human recombinant soluble NPP1 (Val191 - Leu591) expressed in murine myeloma NS0 cells obtained from R&D Systems GmbH (Wiesbaden, Germany, purity 95%, purified by using an N-terminal His-tag). For initial screening and selectivity analysis, NPP1 prepared as previously described ([20]), diluted in assay buffer, was used. The mixture of enzyme, substrate and test compound or buffer without test compound was incubated for 30 min at 37°C, and the reaction was terminated by heating at 90°C for 5 min. Capillary electrophoresis (CE) analysis was carried out to analyze the formation of the product. Data collection and peak area analysis were performed by the P/ACE MDQ software 32 KARAT obtained from Beckman Coulter (Fullerton, CA, USA). A polyacrylamide-coated capillary was used [30 cm (20 cm effective length) × 50 μm (id) × 360 μm (od) purchased from Chromatographie Service GmbH (Langerwehe, Germany)]. Samples were injected electro-kinetically by applying a voltage of -6 kV for 30 s. Finally, analytes were separated by applying a separation voltage of -20 kV, and detected by UV at 260 nm. The IC50 values were determined by nonlinear curve fitting using the GraphPad Prism Software 7.0. The mechanism of inhibition at human NPP1 was determined employing different concentrations of the investigated compounds 6 (at 0, 0.4, 4.0 µM), and 7 (at 0, 0.4 and 40 µM) versus four different substrate concentrations ranging from 50 to 500 μM of ATP. The assay procedure and operation conditions were the same as described above. The experiment was conducted twice, each in triplicates. A Lineweaver-Burk was calculated using GraphPad Prism 7.0 for predicting the inhibition type of the compound.

human NPP1 [2] = assay: as above
Method: as §1

human NTPDase8 = biological target: T2, human NTPDase8 (Homo sapiens, UniProt Q5MY95); assay: NTPDase CE-based assay, NTPDase8; details: 20 µg/mL (12 µM)
T2 construct: made in house; host or cells: COS-7 cells
T2 sequence (Q5MY95 1-495): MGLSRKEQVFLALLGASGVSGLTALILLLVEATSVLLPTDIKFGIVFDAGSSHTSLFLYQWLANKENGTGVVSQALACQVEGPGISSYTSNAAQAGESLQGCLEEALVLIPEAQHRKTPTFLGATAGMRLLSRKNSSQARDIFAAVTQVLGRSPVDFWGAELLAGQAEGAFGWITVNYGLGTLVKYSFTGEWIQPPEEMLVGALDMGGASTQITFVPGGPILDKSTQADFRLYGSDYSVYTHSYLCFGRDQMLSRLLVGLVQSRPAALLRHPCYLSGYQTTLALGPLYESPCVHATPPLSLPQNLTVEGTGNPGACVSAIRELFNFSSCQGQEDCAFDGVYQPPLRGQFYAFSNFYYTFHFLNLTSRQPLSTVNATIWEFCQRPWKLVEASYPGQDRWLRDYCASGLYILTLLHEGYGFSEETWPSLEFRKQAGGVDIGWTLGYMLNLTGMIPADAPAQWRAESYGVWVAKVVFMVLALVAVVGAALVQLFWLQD
Method: For monitoring the activity of human NTPDases (subtypes 1, 2, 3 and 8) in the presence of test compounds, a CE-based assay system was used, according to a published procedure ([11], [25]). The following concentrations of test compounds were investigated in initial screening studies: 63 IU/mL of compounds 1 and 2, 30 µM of compound 6. For selectivity studies, the following concentration were employed: 50 IU/mL of 1, 12 µM of 6, and 48 µM of 7. The amount of enzyme was selected according to previously performed enzymatic titration, and adjusted to ensure a 10–20% conversion rate. Enzymes were obtained by transfection of COS-7 cells using plasmids encoding human NTPDase1 (GenBank accession number U87967) ([26]), NTPDase2 (NM_203468) ([27]), a kind gift of Dr. A.F. Knowles (San Diego, CA), NTPDase3 (AF034840) ([28]), a kind gift of Dr. T.L. Kirley (Cincinnati, OH) and human NTPDase8 (AY430414) ([29]) and purified as previously described ([30], [31]). The reaction buffer consisted of 10 mM HEPES, 2 mM CaCl2, and 1 mM MgCl2, pH 7.4. In the CE assay, the selected substrate concentration (ATP) was 100 µM for all studied human NTPDases (-1, -2, -3 and -8). […] The released products were separated by CE and quantified by their UV-absorption at 260 nm with ADP and AMP as external standards, as previously described ([11]); positive and negative controls were included.

Compound: CO[C@H]1O[C@H](COS(=O)(=O)O)[C@@H](O[C@@H]2O[C@@H](C(=O)O)[C@@H](O[C@H]3O[C@H](COS(=O)(=O)O)[C@@H](O[C@@H]4O[C@H](C(=O)O)[C@@H](O[C@H]5O[C@H](COS(=O)(=O)O)[C@@H](O)[C@H](O)[C@H]5NS(=O)(=O)O)[C@H](O)[C@H]4O)[C@H](OS(=O)(=O)O)[C@H]3NS(=O)(=O)O)[C@H](O)[C@H]2OS(=O)(=O)O)[C@H](O)[C@H]1NS(=O)(=O)O [Compound 6, Fondaparinux]
- inhibition type at human NPP1 (human NPP1 [1]; Lineweaver-Burk plots, ATP 50-500 µM): mixed-type
- IC50 (human NPP1 [1]; read-out: IC50 ± SD (µg/ml) (converted)): 3.31 µM
- IC50 (human NPP1 [1]; values of 1 and 2 estimated (1 IU = 0.002 mg; mean 16.5 kDa for heparin-sodium), read-out: IC50 ± SD): 2.94 ± 0.61 µM
- NPP1 inhibition, selectivity study (human NPP1 [2]; 20 µg/mL (12 µM)): full inhibition
- inhibition of human NPP1, initial screening (human NPP1 [2]; 50 µg/mL (30 µM)): almost complete inhibition
- NTPDase8 inhibition, selectivity study (human NTPDase8): no effect
